# Where “and” joins values, the source holds several entries; their conditions need not be identical. Equal values may be shown once. Entries after “also recorded” stand apart in the source; their conditions may differ.
# Experiments:
# Type in all cases: cell-based, human
# HEK-TLR4 cells = experiment: P. gingivalis LPS-induced cytokine secretion by HEK-TLR4 cells, Luminex 5-plex magnetic bead panel (Example 2)
# Protocol: Commercially available HEK-Blue TLR4 cells (Invitrogen) are recombinant HEK 293 cells that have been transformed with DNA that encodes TLR4 that is expressed and present on the cell surface. HEK-Blue TLR4 cells are grown ion culture and used can be used in experimental assays to identify test compositions that modulate inflammation pathways stimulated by TLR4-LPS interaction.
# Initial for LPS and zinc-containing starting solutions were made as follows. An LPS starting solution was prepared as follows: a […] solution of LPS was prepared using 2 μl of 1 mg/ml LPS and 10 ml media. Multiple zinc starting solutions were each prepared using media as diluent: a) 20 mM zinc oxide, b) 2 mM zinc oxide, c) 20 mM zinc citrate, d) 2 mM zinc citrate, e) 20 mM of a composition containing a 2:1 mixture of zinc oxide and zinc citrate and f) 2 mM of a composition containing a 2:1 mixture of zinc oxide and zinc citrate. The starting solutions were used to prepare various test samples.
# In some embodiments, control assays include “Untreated”, in which eight Zinc test samples without LPS were made: […], 10 mM zinc oxide+zinc citrate, 1 mM zinc oxide+zinc citrate, 10 mM zinc oxide+zinc citrate+arginine and 1 mM zinc oxide+zinc citrate+arginine, The test samples without LPS were prepared by diluting the zinc starting solutions with equal parts media. Eight test samples with LPS were made: […], […], […], […], 10 mM zinc oxide+zinc citrate LPS, 1 mM zinc oxide+zinc citrate LPS, 10 mM zinc oxide+zinc citrate+arginine LPS and 1 mM zinc oxide+zinc citrate+arginine LPS. The test samples with LPS were prepared by diluting the zinc starting solutions with equal parts LPS starting solution.
# (§1) Cells were grown to 70-80% confluent in a 96 well plate. 100 uL of a test sample was added to a well. Cells with test sample were incubated overnight. Media was collected from each well and transferred to a corresponding well in a 96-well plate. Assays to measure proinflammatory cytokines including IL-8 secretion were performed for each well.
# (§2) Inflammation markers in supernatants collected from HEK-Blue cells co-incubated with Zinc and Zinc+LPS were quantified using Luminex Magpix instrument (MAGPIX-XPON42) and human 5-plex cytokine/chemokine Magnetic bead panel (Millipore HCYTOMAG-60K). The human 5-plex cytokine/chemokine Magnetic bead panel quantifies TNF-α, IL-6, IL-8, IL-1β and GM-CSF.
# The Luminex Kit Procedure outlined in the instruction manual for each separate Luminex kit was performed on the supernatants collected from the HEK-Blue cells co-incubated with Zinc test solutions without LPS and Zinc test solutions plus LPS. Quality controls in range for the specified analytes were performed to ensure levels were within the acceptable range.
# To run the Luminex Test, all necessary calibration and verification procedures as outlined by the MagPix and xPonent softwares were completed and the appropriate protocol for the assay was selected. The standards were verified to be correct and complete the plate layout of samples was verified. […] The “Avg. Result” was identified in the results generated.
# Experiments were conducted to identify compositions that inhibit P. gingivalis LPS-induced IL-8, TNFα, GM-CSF, IL-1β and IL-6 by HEK-TLR4 cells. HEK-TLR4 cells in 96 well plates were contacted with 100 μl samples. IL-8, TNFα, GM-CSF, IL-1β and IL-6 were detected as described above.
# HEK-Blue hTLR4 cells [1] = experiment: E. coli LPS- and P. gingivalis LPS-induced IL-8 by HEK-Blue hTLR4 cells (Example 3)
# Protocol: as §1, §2
# Experiments were conducted to identify compositions that inhibit E. coli LPS-induced IL-8 and P. gingivalis LPS-induced IL-8 by HEK-Blue hTLR4 cells. HEK-TLR4 cells in 96 well plates were contacted with 100 μl samples. IL-8 was detected as described above.
# HEK-Blue hTLR4 cells [2] = experiment: IL-8 in HEK-Blue hTLR4 cell supernatants with standard P.g. LPS and simple solutions at 1 mM vs 10 mM total zinc (Example 4)
# Protocol: (§3) HEK-Blue hTLR4 cells (Invivogen, cat #hkb-htlr4) were cultured in a DMEM culture medium supplemented with 10% FBS and 1% penstrep at 37° C. with 5% CO2. LPS from Porphyromonas gingivalis (P.g. LPS; Invivogen, cat #tlrl-pglps and cat #tlrl-ppglps) activates TLR4 receptor and downstream inflammation in HEK-Blue hTLR4 cells. P.g. LPS is co-incubated with HEK-Blue hTLR4 cells in the absence or presence of the simple solutions. Standard and ultrapure P.g. LPS were both used due to ultrapure being a specific ligand for the TLR4 receptor while standard LPS is a ligand for both TLR2 and TLR4.
# (§4) The simple solutions a) Zinc Oxide (ZnO), b) Zinc Citrate (ZnCitrate), c) Zinc Oxide+Zinc Citrate (Dual Zinc; DZ), d) Dual Zinc+Arginine (DZA, zinc oxide, zinc citrate and arginine), and e) L-Arginine (Arg) were diluted at different concentrations with culture medium.
# 1) experiments using 1 mM vs 10 mM total zinc; and
# (§5) HEK-Blue hTLR4 cells were plated in 96-well plates and grown until confluent at 37° C. and 5% CO2 in HEK-blue selection media (DMEM with 10% FBS, 1% penicillin-streptomycin, and antibiotics for HEK-blue selection (Invivogen, cat #hb-sel)). Cells were co-incubated overnight with varying concentrations of different zinc actives as well as arginine and stimulated with either 0.1 μg/mL standard P. gingivalis LPS or 1 μg/mL ultrapure P. gingivalis LPS. Cell supernatants were collected for human inflammation cytokine panels using Multiplex and ELISA analysis.
# (§6) Multiplex analysis was performed using the MILLIPLEX MAP Human Cytokine/Chemokine Magnetic Bead Panel—Immunology Multiplex Assay for IL-1, IL-6, IL-8, TNFα, and GM-CSF (Millipore Sigma, cat #HCYTOMAG-60K).
# Testing was performed using total zinc concentrations to normalize the amount the zinc applied in the cell culture medium during co-incubation. Two concentrations of total zinc ion are based on the potential amount of zinc retained on the mouth soft tissue surface.
# HEK-Blue hTLR4 cells [3] = experiment: IL-8 dose response in HEK-Blue hTLR4 cells with P.g. LPS 1 μg/ml and 3X-24X dilutions of simple solutions (Example 4)
# Protocol: as §3, §4
# 2) experiments using 3×, 6×, 12×, and 24× dilution fold of the simple solutions (see Table 6 below).
# as §5, §6
# In order to understand the role of Arginine in the inhibition of LPS induced inflammation, a dose response experiment was performed using ultrapure P.g. LPS, which only specifically targets TLR4 receptor, in order to maximize the activation of NF-kB and expression of IL-8.
# The testing samples were prepared as the stock simple solutions. […] The first serial dilution was made 3 times with water, a dilution factor simulating dilution of toothpastes while brushing. Additional serial dilutions were made by 2-fold of the first dilution to study dose response effect.
# [4] = P. gingivalis LPS, 300 and 600 ppm
# [5] = 1 mM total zinc with standard P.g. LPS (0.1 μg/ml)
# [6] = 10 mM total zinc with standard P.g. LPS (0.1 μg/ml)
# [7] = 3X dilution of stock simple solution (Table 6) with P.g. LPS (1 μg/ml)
# [8] = 6X dilution of stock simple solution (Table 6) with P.g. LPS (1 μg/ml)
# [9] = 12X dilution of stock simple solution (Table 6) with P.g. LPS (1 μg/ml)
# [10] = 24X dilution of stock simple solution (Table 6) with P.g. LPS (1 μg/ml)
structure (smiles),measurement,setting,value
"[O]=[Zn] [ZnO, zinc oxide]","IL-8 (raw data, single replicate)","HEK-TLR4 cells; 600 ppm, without LPS",993.3 pg/mL and 512.5 pg/mL and 355.4 pg/mL and 374 pg/mL
same,TNF-α (average result),"HEK-TLR4 cells; 600 ppm, without LPS",2.405 pg/mL
same,"TNFα (raw data, single replicate)","HEK-TLR4 cells; 600 ppm, without LPS",3.729 pg/mL and 2.195 pg/mL and 1.804 pg/mL and 1.891 pg/mL
same,effect on LPS-induced TNFα (in words),HEK-TLR4 cells; [4],reduced LPS-induced TNFα; also recorded: significantly reduced
same,effect on induction of IL-8 by LPS (in words),HEK-TLR4 cells; [4],significantly reduced; also recorded: comparatively small effect
same,IL-8 (average),HEK-Blue hTLR4 cells [1]; 100 ppm with 1.0 μg/ml E. coli LPS,317267829 pg/mL
same,IL-8 (average),HEK-Blue hTLR4 cells [1]; 100 ppm with 1.0 μg/ml P. gingivalis LPS,210374063 pg/mL
same,IL-8 (average),"HEK-Blue hTLR4 cells [1]; 100 ppm, without LPS",610.1 pg/mL
same,inhibitory effect on P. gingivalis LPS-induced IL-8 (in words),HEK-Blue hTLR4 cells [1]; 500 ppm and 100 ppm,inhibitory effect
same,IL-8 (average),HEK-Blue hTLR4 cells [1]; 500 ppm with 1.0 μg/ml E. coli LPS,564963251 pg/mL
same,IL-8 (average),HEK-Blue hTLR4 cells [1]; 500 ppm with 1.0 μg/ml P. gingivalis LPS,275576697 pg/mL
same,IL-8 (average),"HEK-Blue hTLR4 cells [1]; 500 ppm, without LPS",448.6 pg/mL
same,"IL-8 Concentration, Average",HEK-Blue hTLR4 cells [2]; [5],39.5 pg/mL
same,"IL-8 Concentration, replicate",HEK-Blue hTLR4 cells [2]; [5],42.95 pg/mL and 30.75 pg/mL and 35.45 pg/mL and 48.85 pg/mL
same,"IL-8 Concentration, Average",HEK-Blue hTLR4 cells [2]; [6],18.9 pg/mL
same,"IL-8 Concentration, replicate",HEK-Blue hTLR4 cells [2]; [6],20.35 pg/mL and 27.65 pg/mL and 10.45 pg/mL and 16.95 pg/mL
same,IL-8 induced by co-incubation with P.g. LPS (in words),HEK-Blue hTLR4 cells [2]; at both 1 mM and 10 mM,reduced
same,"IL-8 Concentration, Average",HEK-Blue hTLR4 cells [3]; [7],29.0 pg/mL
same,"IL-8 Concentration, replicate",HEK-Blue hTLR4 cells [3]; [7],32.6 pg/mL and 25.5 pg/mL
same,"IL-8 Concentration, Average",HEK-Blue hTLR4 cells [3]; [8],510.0 pg/mL
same,"IL-8 Concentration, replicate",HEK-Blue hTLR4 cells [3]; [8],646.1 pg/mL and 374.0 pg/mL
same,"IL-8 Concentration, Average",HEK-Blue hTLR4 cells [3]; [9],2658.0 pg/mL
same,"IL-8 Concentration, replicate",HEK-Blue hTLR4 cells [3]; [9],2699.5 pg/mL and 2616.4 pg/mL
same,"IL-8 Concentration, Average",HEK-Blue hTLR4 cells [3]; [10],3015.5 pg/mL
same,"IL-8 Concentration, replicate",HEK-Blue hTLR4 cells [3]; [10],3010.4 pg/mL and 3020.6 pg/mL
same,inhibition of IL-8 (in words),HEK-Blue hTLR4 cells [3]; when dilution folds increase,lose the inhibition of IL-8 gradually

# From patent US20210318306A1, “Compositions for and Methods of Neutralizing Lipopolysaccharide Toxicity and Methods of Identifying the Same” (priority 2020, published 2021)
